≈ marks a conversion by molar mass, not a printed value.
Columns and labels:
HT 29 (colon carcinoma) = assay: Cytotoxicity, MTT assay, HT 29 cells; assay type: cell-based; conditions: human colon adenocarcinoma cells, 144 hours incubation, read-out: HT29 (IC50, μg/ml)
Method: (§1) The compounds according to the invention have been pharmacologically tested against four human tumor cell lines: HT 29 (colon carcinoma), PC 3 (prostate carcinoma), H 460M (lung carcinoma), MKN-45 (gastric carcinoma). Cells were incubated with the tested compound for 144 hours, then cytotoxicity was determined by using the MTT assay (Mosman, T. “Rapid Colorimetric Assay for Cellular Growth and Survival: Application to Proliferation and Cytotoxicity Assay”; J. Immunolog. Methods, (1983), 65, 66; Green, L. M., “Rapid Colorimetric Assay for Cell Viability; Application to the Quantitation of Cytotoxic and Growth Inhibitory Lymphokines”, J. Immunol. Methods, (1984),;70, 257-268).
(§2) The compounds according to the invention have been pharmacologically tested against four human tumour cell lines: HT 29 (colon carcinoma), PC 3 (prostate carcinoma), H 460M (lung carcinoma), MKN45 (gastric carcinoma). Cells were incubated with the tested compound for 144 hours, then cytotoxicity was determined by using the MTT assay (Mosman, T. “Rapid Colorimetric Assay for Cellular Growth and Survival: Application to Proliferation and Cytotoxicity Assay”; J. Immunolog. Methods, (1983), 65, 66; Green, L. M., “Rapid Colorimetric Assay for Cell Viability; Application to the Quantitation of Cytotoxic and Growth Inhibitory Lymphokines”, J. Immunol. Methods, (1984), 70, 257-268).

[1] = test system: PC 3 (prostate carcinoma); assay: Cytotoxicity, MTT assay, PC 3 cells; assay type: cell-based; conditions: human prostate carcinoma cells, 144 hours incubation, read-out: PC3 (IC50, μg/ml)
Method: as §1, §2

H 460M (lung carcinoma) = assay: Cytotoxicity, MTT assay, H 460M cells; assay type: cell-based; conditions: human lung carcinoma cells, 144 hours incubation, read-out: H460M (IC50, μg/ml)
Method: as §1, §2

[2] = test system: MKN-45 (gastric carcinoma); assay: Cytotoxicity, MTT assay, MKN-45 cells; assay type: cell-based; conditions: human gastric carcinoma cells, 144 hours incubation, read-out: MKN-45 (IC50, μg/ml)
Method: as §1, §2

SMILES | melting point | IC50 (HT 29 (colon carcinoma)) | IC50 [1] | IC50 (H 460M (lung carcinoma)) | IC50 [2]
NCCNC(=O)c1cccc2c1c(C(=O)C(=O)NC1=CC(=O)OC1)cn2Cc1ccc(Cl)cc1 | 190 to 196 °C |  |  |  | 
O=C1C=C(NC(=O)C(=O)c2cn(Cc3ccc(Cl)cc3)c3cccc(CO)c23)CO1 | 238 to 240 °C |  |  |  | 
O=C1C=C(NC(=O)C(=O)c2cn(Cc3ccc(Cl)cc3)c3ccccc23)CS1 | 268 to 270 °C |  |  |  | 
CN(C)CCNC(=O)c1cccc2c1c(C(=O)C(=O)NC1=CC(=O)OC1)cn2Cc1ccc(Cl)cc1 | 225 to 227 °C |  |  |  | 
O=C1C=C(NC(=O)C(=O)c2cn(Cc3ccc(Cl)cc3)c3ccccc23)CO1 [Example 2, N-(5-oxo-2,5-dihydrofuran-3-yl)-2-(1-(4-chlorobenzyl)-1H-indol-3-yl)-2-oxo-acetamide] | 253 to 255 °C | 0.13 µg/mL (≈ 0.329 µM) | 0.22 µg/mL (≈ 0.557 µM) | 0.011 µg/mL (≈ 0.0279 µM) | 0.048 µg/mL (≈ 0.122 µM)
O=C1C=C(NC(=O)C(=O)c2cn(Cc3ccc(F)cc3)c3ccccc23)CO1 [Example 3, N-(5-oxo-2,5-dihydrofuran-3-yl)-2-(1-(4-fluorobenzyl)-1H-indol-3-yl)-2-oxo-acetamide] | 260 to 262 °C | 0.0004 µg/mL (≈ 0.00106 µM) | 0.035 µg/mL (≈ 0.0925 µM) | 0.012 µg/mL (≈ 0.0317 µM) | 0.088 µg/mL (≈ 0.233 µM)
O=C1C=C(NC(=O)C(=O)c2cn(Cc3ccc(Cl)cc3)c3cc(Cl)ccc23)CO1 [Example 4] |  | 0.1 µg/mL (≈ 0.233 µM) | 0.3 µg/mL (≈ 0.699 µM) | 0.049 µg/mL (≈ 0.114 µM) | 0.12 µg/mL (≈ 0.28 µM)

Reference: patent US6753342B2, “2-(1h-indol-3-yl)-2-oxo-acetamides with antitumor activity” (Novuspharma S.p.A., priority 1999, dated 2004)
